Test results from US9872840B2, “Effect of garcinol in delaying the progression of diabetic nephropathy” (Delhi Institute of Pharmaceutical Sciences and Research, priority 2013, dated 2018).

Key:
[1] = system: STZ diabetic rats; assay: Homeostatic model assessment (HOMA-Index, β-cell function) in STZ diabetic rats; format: in vivo, rat; conditions: STZ diabetic rats after treatment; mean ± S.E.M., five animals
Excerpt: The homeostatic model assessment (HOMA) is a method used to quantify insulin resistance and beta-cell function (Homeostasis model assessment: insulin resistance and beta-cell function from fasting plasma glucose and insulin concentrations in man. Diabetologia 28: 412-9.). The approximating equation for insulin resistance, in the early model, used a fasting plasma sample, and was derived by use of the insulin-glucose product, divided by a constant. HOMA-IR=(Glucose×Insulin)/405;HOMA-% B=([…])/(Glucose-63)
Where IR is insulin resistance and % B is the β-cell function where Glucose is given in mg/dl and Insulin is given in μU/mL (both during fasting). Garcinol inhibited insulin resistance assessed by HOMA-Index with significance when compared with the diabetic group.

[2] = system: glucose transporter 2 (GLUT2); assay: GLUT-2 protein expression in liver of diabetic rats (Western blot); format: in vivo, rat; conditions: 8 weeks treatment, FIG. 3
Procedure: (§1) For determination of glucose transporter 2 (GLUT2) protein expressions in liver and glucose transporter 4 (GLUT4) protein expressions in skeletal muscle; each sample prepared was mixed with 1% sodium dodecyl sulfate and 50 mM dithiothreitol, and the mixture was subjected to electrophoresis with 10% polyacrylamide gel. The separated proteins on the gel were electrotransferred to a polyvinylidene difluoride membrane. After blocking with 5% skim milk solution including 0.05% Poly (Oxyethylene) sorbitan monolaurate (Tween 20) overnight at 4° C., the membrane was reacted with anti-GLUT-2 antibody (Abcam, UK) & anti-GLUT-4 antibody (Abcam, UK) for 2 h. Subsequently, it was incubated with horseradish peroxidase conjugated IgG (diluted 1:2000) [Jackson immunoresearch laboratories, USA] for 2 h at room temperature (Western Blot). Reduced qualitative expression of GLUT2 and GLUT 4 in liver and muscle respectively of diabetic rats were improved with the garcinol treatment (FIG. 3), which were better than observed with olmesartan.

[3] = system: STZ diabetic rats; assay: Tubulointerstitial matrix index (Masson's trichrome); format: in vivo, rat; conditions: kidney of STZ diabetic rats, 8 weeks; semi-quantified; garcinol 200 mg/kg, olmesartan 6 mg/kg, glimepiride 1 mg/kg
Procedure: (§2) Kidney sections were stained with periodic acid-Schiff's reagent and Masson's modified trichrome to assess glomerulosclerosis and collagenous tubulointerstitial matrix, respectively.
The accumulation of matrix within the tubulointerstitial was assessed on Masson's trichrome stained sections. Blue area on a trichrome-stained section was selected for its color range and the proportional area of tissue with this range of color was then semi-quantified as tubulointerstitial matrix index (TIMI).

[4] = system: STZ diabetic rats; assay: Fasting and post prandial blood glucose in STZ diabetic rats; format: in vivo, rat; parameters: Reduction of post prandial glucose: concentration or dose not given beside the values; conditions: for Reduction of fasting blood glucose / Reduction of post prandial glucose: 8 weeks treatment; for Reduction of post prandial glucose: compared to diabetic group; for Blood glucose, fasting, before treatment / Blood glucose, post prandial, before treatment: baseline before treatment; for Blood glucose, fasting, before treatment / Blood glucose, post prandial, before treatment / Blood glucose, fasting, after treatment / Blood glucose, post prandial, after treatment: mean ± S.E.M., eight animals; for Blood glucose, fasting, after treatment / Blood glucose, post prandial, after treatment: once daily for 8 weeks, garcinol 200 mg/kg, olmesartan 6 mg/kg/day, glimepiride 1 mg/kg/day
Procedure: (§3) The Garcinol used for the experimental studies was bought from Sami Labs, Hyderabad. It was administered at the dose of 200 mg/kg dispersed in water with 1% CMC. Further, the experimental procedures were conducted according to the Institutional Animal Ethical Committee (protocol no. DIPSAR/IAEC/2009/01) and CPCSEA guidelines. All rats were housed under conventional conditions with controlled temperature, humidity and light (12 hours light-dark cycle), and were provided with a standard commercial diet and water (ad libitum). Healthy albino rats of Wistar strain were kept for breeding. Diabetes was induced by administration of streptozotocin (STZ, 90 mg/kg, i.p.) to a group of 2 day old pups. Age-matched control rats were given an equal volume of vehicle and considered as ‘Normal’ group of rats. Six weeks after injection, the blood glucose level was measured from the tail vein. Rats with a fasting blood glucose level over 160 mg/dl were considered as diabetic.
(§4) After 6 weeks, four groups of animals, each comprising of 8 animals were made. The groups were assigned to receive vehicle or garcinol (200 mg/kg dispersed in 1% CMC); Olmesartan (6 mg/kg/day) and Glimepiride (1 mg/kg/day) once daily for 8 weeks. After the final drug administration, body weight was measured and blood samples were collected in both fasting and post prandial conditions. The kidney of treated and untreated animals were isolated and fixed in 10% buffered formalin solution to prepare paraffin sections.
However, the decrease was less than antidiabetic reference glimepiride treatment (˜27%). Moreover, the reduction of post prandial glucose with garcinol treatment (˜36%) was more than olmesartan (˜10%) but was lower than observed with glimepiride treatment (almost 43%) when compared to diabetic group.

[5] = system: STZ diabetic rats; assay: DNA fragmentation assay (TUNEL) for apoptosis in kidney; format: in vivo, rat; conditions: for Apoptosis: kidney of STZ diabetic rats, 8 weeks, garcinol 200 mg/kg, olmesartan 6 mg/kg, glimepiride 1 mg/kg; for DNA fragmentation / apoptosis in kidney (qualitative): kidney of diabetic rats, FIG. 4
Procedure: For detection and localization of apoptosis in kidney, the technique of terminal deoxynucleotidyl transferase-mediated dUTP nick end labeling (TUNEL) (Apo-BrdU-IHC™ In Situ DNA Fragmentation Assay Kit, Biovison, USA) were employed. Briefly, sections were deparaffinized, hydrated, and digested with proteinase K (20 μg/ml), and then added biotinylated dUTP to the 3′ end of DNA fragments by incubating sections in 0.05 mol/l Tris-HCl buffer (pH 7.6) with 0.03 U/μl TdT and 0.04 nmol/μl biotin-11-dUTP at 37° C. for 1 h. The sections were rinsed in PBS. Endogenous peroxidase was blocked with 0.3% H2O2 in distilled H2O. The sections were rinsed with PBS and covers with 2% blocking solution in 0.1 mol/l sodium maleate to reduce background staining. The sections were then incubated with avidin-peroxidase complexes in PBS (1:50) for 30 min and rinsed with PBS (3×5 min). Peroxidase activity was visualized with 3,3′-diaminobenzidine until the brown product was clearly visible. The sections were then counterstained with methyl green. The positive apoptotic cells were the cells with brown nucleus 2.10.

[6] = system: STZ diabetic rats; assay: Renal function and biochemical parameters in plasma/serum of STZ diabetic rats; format: in vivo, rat; conditions: 8 weeks, garcinol 200 mg/kg, olmesartan 6 mg/kg, glimepiride 1 mg/kg
Procedure: as §3, §4
Biochemical estimation for glucose, insulin, albumin and total proteins; glomerular proteins (viz β-2 microglobulin, serum cystatin c and serum creatinine) for the determination of GFR; inflammatory cytokines and growth factors like Tumor necrosis factor (TNF-α), Nitric Oxide (NO), Transforming growth factor (TGF-β1) and Vascular endothelial growth factor (VEGF) and kidney specific molecular markers involving adiponectin and erythropoietin were made in plasma/serum.

[7] = system: STZ diabetic rats; assay: Kidney histopathology, glomerulosclerotic index (periodic acid-Schiff); format: in vivo, rat; conditions: 8 weeks; for GSI (glomerulosclerotic index): kidney of STZ diabetic rats, sclerosis graded 0 to 4, garcinol 200 mg/kg, olmesartan 6 mg/kg, glimepiride 1 mg/kg
Excerpt: as §2
In 4 μm kidney sections stained with periodic acid-Schiff's reagent, 150 glomeruli from each animal were examined. The extent of sclerosis in each glomerulus was subjectively graded on a scale of 0 to 4, with the following grades: grade 0 normal, grade 1 sclerotic area <25% (minimal), grade 2 sclerotic area 25-50% (moderate), grade 3 sclerotic area 50-75% (moderate to severe) and grade 4 sclerotic area 75-100% (severe). A glomerulosclerotic index was then calculated using the formula: […]
Where GSI is glomerulosclerotic index, Fi is the % of glomeruli in the rat with a given score (i).

[8] = system: glucose transporter 4 (GLUT4); assay: GLUT-4 protein expression in soleus muscle of diabetic rats (Western blot); format: in vivo, rat; conditions: 8 weeks treatment, FIG. 3
Procedure: as §1

[9] = system: rat nephrin; assay: Immunohistochemistry for nephrin in kidney; format: in vivo; conditions: kidney of STZ diabetic rats, 8 weeks; garcinol 200 mg/kg, olmesartan 6 mg/kg, glimepiride 1 mg/kg
Procedure: Immunohistochemistry was done as previously described according to a modified method using a Polyclonal (C-Terminus) Antibody which is identical to rat nephrin. These experiments were done using 4 micron […] kidney sections, as previously reported. Paraffin-embedded tissues sections were deparaffinized in microwave oven for 3 minutes. The sections were rehydrated in graded series of xylene and alcohols. Endogenous peroxidase activity was blocked by 3% hydrogen peroxide in distilled water for 15 minutes. Antigen retrieval was achieved by steam heating in a solution of citrate buffer, pH 6.0 for 30 minutes. Sections were blocked with 10% normal goat serum for polyclonal antibodies. Sections were then incubated for one hour with primary antibody Polyclonal (C-Terminus) Antibody which is identical to rat nephrin. The sections were then incubated in avidin-biotin complex at 1:25 dilution for 30 min at room temperature and developed using diaminobenzidine (DAB) as chromogen. After washing, the sections were counter-stained with hematoxylin and coverslipped. Negative controls were carried out by incubation in the absence of the primary antibody. The quantification of nephrin was done using point counting technique for each animal as described in established method. Davis B J, Johnston C I, Burrell, L M, Burns W C, Kubota E, Cao Z, Cooper M E, Allen T J. Renoprotective effects of vasopeptidase inhibition in an experimental model of diabetic nephropathy. Diabetologia. 2003; 46(7): 961-71.

| Structure (SMILES) | % BETA-CELL FUNCTION [1] | HOMA-INDEX [1] | TIMI (tubulointerstitial matrix index) [3] | Reduction of fasting blood glucose [4] [%] | Reduction of post prandial glucose [4] [%] | Blood glucose, fasting, before treatment [4] [mg/dL] | Blood glucose, post prandial, before treatment [4] [mg/dL] | Blood glucose, fasting, after treatment [4] [mg/dL] | Blood glucose, post prandial, after treatment [4] [mg/dL] | Apoptosis [5] [% FA] | DNA fragmentation / apoptosis in kidney (qualitative) [5] | Adiponectin [6] [µg/mL] | Beta-2 microglobulin (GFR) [6] [µg/mL] | Erythropoietin [6] [mlU/ml] | Nitric Oxide [6] [nmol/µL] | Plasma Insulin [6] [ng/mL] | Serum Creatinine (GFR) [6] [mg/dL] | Serum CystatinC (GFR) [6] [ng/mL] | TGF-β [6] [pg/mL] | TNF-α [6] [pg/mL] | further results |
| --- | --- | --- | --- | --- | --- | --- | --- | --- | --- | --- | --- | --- | --- | --- | --- | --- | --- | --- | --- | --- | --- |
| CCC1=C(C)CN(C(=O)NCCc2ccc(S(=O)(=O)NC(=O)N[C@H]3CC[C@H](C)CC3)cc2)C1=O [Glimepiride, glimepiride] | 35.6 ± 5.24 | 1.53 ± 0.144 | 2 | ~27 | ~43 | 165.2 ± 1.5 | 308 ± 4.98 | 119.2 ± 5.4 | 174 ± 3.75 | 90 | no change in the decrease in apoptosis | 2.277 ± 0.86 | 1.42 ± 0.21 | 0.5141 ± 0.13 | 0.33 ± 0.064 | 14.38 ± 1.29 | 1.873 ± 0.56 | 0.2933 ± 0.033 | 8.316 ± 2.06 | 0.08563 ± 0.0167 | Qualitative expression of GLUT2 in liver [2]: did not show any improvement; Total Proteins [6]: 1.956 ± 0.09 mg/mL; VEGF [6]: 61.29 ± 2.54 pg/mL; GSI (glomerulosclerotic index) [7]: 2.8; Qualitative expression of GLUT 4 in muscle [8]: did not show any improvement; Nephrin [9]: 20 % FA |
| CCCc1nc(C(C)(C)O)c(C(=O)OCc2oc(=O)oc2C)n1Cc1ccc(-c2ccccc2-c2nnn[nH]2)cc1 [Olmesartan, olmesartan medoxomil] | 21.7 ± 1.98 | 1.7 ± 0.095 | 1 | 14 | ~10 | 162.7 ± 4.34 | 288 ± 6.82 | 139.7 ± 5.05 | 259 ± 7.16 | 40 | decrease in the DNA fragmentation was clearly observed qualitatively | 0.93 ± 0.18 | 0.6529 ± 0.21 | 0.2657 ± 0.047 | 0.34 ± 0.097 | 12.74 ± 1.48 | 2.063 ± 0.41 | 0.4617 ± 0.048 | 5.963 ± 0.896 | 0.05665 ± 0.013 | Total Proteins [6]: 2.123 ± 0.11 mg/mL; VEGF [6]: 66.3 ± 1.14 pg/mL; GSI (glomerulosclerotic index) [7]: 1.4; Histopathological changes in kidney (qualitative) ([7]; kidney of diabetic rats, FIG. 4): improvement in tubular injury was visible; Nephrin [9]: 62.5 % FA |
